Laboratory results reported in patent US10941126B2, “Bridged bicycloalkyl-substituted aminothiazoles and their methods of use” (Temple University—Of The Commonwealth System of Higher …, priority 2017, dated 2021).

Key:
YB5 cells = assay: GFP reactivation in YB5 cells (flow cytometry); format: cell-based, human
Excerpt: To screen the compounds of the invention for epigenetic anti-cancer activity the YB5 cell-based system, which is derived from the human colon cancer cell line SW48, was used (Si et al., 2010, Cancer Res. 70:6968-6977; Raynal et al., 2012, Cancer Res. 72:1170-1181). YB5 cells contain a single insertion of cytomegalovirus (CMV) promoter driving green fluorescent protein (GFP) gene. GFP expression is silenced in >99.9% of YB5 cells by epigenetic mechanisms. In YB5 cells, the inserted GFP gene behaves similarly to endogenous tumor suppressor genes (TSGs) silenced by epigenetic mechanisms, and it can be reactivated by epigenetic anti-cancer agents such as DNA methylation inhibitors and/or HDAC inhibitors such as depsipeptide (Si et al., 2010, Cancer Res. 70:6968-6977; Raynal et al., 2012, Cancer Research, 72:1170-1181; Wu et al., 2008, Mol. Cell Biol, 28:3219-3235). Thus, reactivation of GFP expression and the resulting fluorescence is a measure of epigenetic anti-cancer activity.
The following procedure may be used to identify compounds of useful in the invention. YB5 cells cultured in L-15 medium supplemented with 10% fetal bovine serum and 1% P/S are treated for 24 hours with varying concentrations (50 nM, 100 nM, 500 nM, 1 μM, 5 μM, 10 μM, 25 μM, and 50 μM) of test compounds. After treatment, cells are trypsinized and re-suspended in cell culture media with propidium iodide (PI) to stain dead cells. Reactivation of GFP is measured using flow cytometry to identify the GFP positive population. The relative activities are expressed as the percent of the response compared to treatment with 20 nM HDACi depsipeptide for 24 hours. YB5 cells are grown in 1% CO2 atmosphere at 37° C.
NDL-3040 compound library consists of 3040 chemically diverse compounds that are semi-natural, derived from natural compounds, or synthetic compounds that are natural-compound-like. The small molecules were arrayed in 96-well plates as 10 mM stocks in 100% DMSO and were purchased from TimTec Inc. An aminothiazole analog library (93 small molecules) was also purchased from the same vendor and was in a 96-well plate format as 10 mM stocks in 100% DMSO. The 3040 compounds were screened at 25 μM for 24 hr. All plates were kept at −80° C. before use. YB5 cells growing in log phase (70-80% confluency) in 96-well plates were used. Each experimental 96-well plate contained 80 different compounds. Compounds were dispensed using an INTEGRA VIAFLO96 96-well pipette. After a 24 hr drug treatment, cells were trypsinized for 10 mins and re-suspended in L-15 medium containing propidium iodide (PI) to stain for dead cells. A total of 10000 cells per well were analyzed using Millipore Guava flow cytometer (EMD, Millipore). GFP positive percentage was calculated by excluding all the PI positive cells. After finishing the screening, the average Z-factor
For drug screening and dose response validations, GFP positive cells were detected by Millipore Guava flow cytometer (EMD, Millipore). Cell cycle analysis was performed using BD FACSCalibur™ by propidium iodide staining four days after drug treatment. Sub-G1 population percentage was also included to measure apoptotic cell proportion. Data were analyzed using FlowJo software version 10.2. For the cell differentiation analysis, cells were washed and stained with propidium iodide (PI), CD11 b (BD Biosciences, #562793) and the isotype control IgG (BD Biosciences, #555748). Flow cytometry analysis was performed on a Millipore Guava flow cytometer (EMD, Millipore). For the ID8 in vivo experiments, ascites was drained from 5-10 mice per group and incubated in ACK buffer (Thermo Fisher) to lyse red blood cells for 10 minutes, then washed. Ascites from each mouse was individually lysed and prepared for flow cytometry. Mononuclear cells collected were cultured for 4 hours in RPMI with 5% Fetal Bovine Serum and in the presence of Cell Stimulation Cocktail (plus protein transport inhibitors; eBioscience). […]

panel of 250 kinases = assay: 250 kinome screening at 1 μM; format: biochemical, human
Procedure: HDAC inhibitory activity assays were performed using FLUOR DE LYS® HDAC fluorometric activity assay kit from Enzo following the manufacturer's instructions. GloMax®-Multi Detection System (Promega) was used to read the fluorescence signals. Histone methyltransferase and demethylase enzymatic assays were performed by BPS Bioscience at 10 μM in duplicates. Kinase enzymatic assays were performed by Nanosyn using microfluidic technology. 250 kinome screening was done in duplicates using MC180295 at 1 μM. IC50 curves against 10 CDKs were created for MC180295. The human kinome tree was annotated using the online Kinome Render software (Chartier, M., Chénard, T., Barker, J., and Najmanovich, R. (2013). PeerJ 1, e126). Isotope kinase assay was performed using previously described methods (Garriga, J., Peng, J., Parreño, M., Price, D. H., Henderson, E. E., and Graña, X. (1998). Oncogene 17, 3093-3102) using recombinant active full-length CDK9/CyclinT1 (Millipore, 14-685) and SMARCA4 (Abcam, ab82237) in the presence or absence of CDK9 inhibitors.

Nc1nc(N[C@H]2CC3CCC2C3)sc1C(=O)c1ccccc1[N+](=O)[O-] (some centres unmarked) [MC180295]
relative activity to Depsipeptide @ 500 nM % (YB5 cells; 500 nM): 14.10%
relative activity to Depsipeptide @ 50 μM % (YB5 cells; 50 μM): 23.32%
Emax at 1 µM (YB5 cells; Homo sapiens, 24 h, read-out: relative activity to Depsipeptide @ 1 μM %): 28.8%
Emax at 5 µM (YB5 cells; Homo sapiens, 24 h, read-out: relative activity to Depsipeptide @ 5 μM %): 65.4%
Emax at 10 µM (YB5 cells; Homo sapiens, 24 h, read-out: relative activity to Depsipeptide @ 10 μM %): 72.8%
Emax at 25 µM (YB5 cells; Homo sapiens, 24 h, read-out: relative activity to Depsipeptide @ 25 μM %): 73.3%
GFP+ cells (YB5 cells; at 500 nM): ~60%
selectivity against a panel of 250 kinases (panel of 250 kinases): highly selective against CDKs
